“Also recorded” adds a separate entry of the source.
Legend:
H460 cells = assay: Cell proliferation assay (resazurin, CellTiter-Blue), H460; format: cell-based; settings: for IC50: Homo sapiens, NCI-H460, 48 h, 2 days incubation, determined in triplicate; for cellular toxicity against H460 cells relative to the parent epoxide: relative to parent epoxide 1
Description: (§1) Cell Culture: Cell line NCI-H460, was purchased from American Type Culture Collection (ATCC). H460 cells were maintained in RPMI-1640 medium and HT-29 cells were maintained in McCoy's 5A medium, supplemented with 10% fetal bovine serum (Life Technologies, UK).
(§2) Cell Proliferation Assay: Cells were plated in black-walled 96-well plates (3000-4000 cells per well). Stock solutions of each compound were diluted serially and the resulting solutions were administrated to cells to achieve final concentrations of 1.1 nM to 2.5 μM in 100 μL total volume. After incubating at 37° C. (5% CO2) for 2 days (H460), 20 μL of resazurin solution (Promega CellTiter-Blue® Cell Viability Assay) was added to each well. After incubating at 37° C. for 4.0 h, the fluorescence (560 nm excitation/590 nm emission) was recorded using a microplate reader (SpectraMax i3) as a measure of viable cells. IC50 values, determined in triplicate, were calculated using a four-parameter logistic equation.

[1] = test system: self-complementary duplex DNA oligonucleotide d(AATTACGTAATT); assay: DNA alkylation of duplex oligonucleotide, gel electrophoresis and LC-MS; format: biochemical
From the text: In developing the compounds described herein, it was anticipated that reversible opening of the epoxide with a latent leaving group would reduce the reactivity of the warhead while attached to the antibody but would allow for reformation of the epoxide under appropriate conditions. After exploration of a variety of possible epoxide adducts using a potent analog (1, Me-ddx), it was discovered that halohydrin FSTs were not only readily synthesized under Lewis- or Brønsted-acid catalysis, but also reverted to the epoxide cleanly in pH 7.4 cell growth media at 37° C. (Scheme 7). […] The DNA-alkylating capability of the bromohydrin FST 3 in comparison to a set of FST analogs of varying potency by incubation with a self-complementary duplex DNA oligonucleotide d([…]) for 4 h at 23° C. then analysis by gel electrophoresis and LC-MS was investigated.

[2] = Liberation of bromohydrin by immolative spacer cyclization in buffer; format: physicochemical
From the text: In order to prevent premature reversion to the epoxide, a system in which the trioxacarcin prodrug would be linked through the tertiary alcohol of the halohydrin was envisioned. Therefore, epoxide formation could only occur once the payload had been released from the antibody upon delivery to the cellular target. Despite recent advances in the field, technology for linkage through alcohol functional groups is limited. Synthesis of benzyl ether, ester, carbonate, carbamate, diphosphate, and silyl linkers at the tertiary alcohol of 3 (bromohydrin) through previously reported methods all failed. Indeed, the electron withdrawing substituents surrounding the halohydrin alcohol (two P-acetals, a y-acetal and a bromide) coupled with the steric encumbrance they impose prevented reaction of this alcohol with nearly all electrophiles evaluated. […] It was believed that this diamine spacer would release free bromohydrin after peptidase cleavage of the linker. Simultaneous Boc deprotection of both the phenol and amine with trifluoroacetic acid (TFA) provided the TFA salt of the amine 9 after concentration, which was evaluated immediately for liberation of bromohydrin 3. […] Modifications of the diamine spacer unit to increase the rate of cyclization were unsuccessful. […]

LXFL 529L = settings: lung cancer cell line; cited from earlier work
H-460 = settings: lung cancer cell line; cited from earlier work
MCF-7 = settings: mammary cancer cell line; cited from earlier work
SF-268 = settings: CNS cancer cell line; cited from earlier work
tumor = settings: cited from earlier work
gram-positive = settings: cited from earlier work
[3] = Compound Stability Assay (buffer, 37° C., LC-MS); format: physicochemical
Description: Compound Stability Assay: In a 1.5 mL screw-top conical plastic vial, the desired compound as a solution in DMSO (5 mM, 6 μL, 30 nmol) was mixed with a solution of N-acetylcysteine in DMSO (10 mM, 6 μL, […], 2 equiv) to quench the maleimide. The mixture was diluted with either pH 5.0 sodium acetate or pH 7.4 phosphate buffer containing 8 mM N-acetylcysteine (282 μL). 1-naphthalene acetic acid in DMSO (5 mM, 6 μL, 30 nmol) was added as an internal standard. In the case of testing free drug stability, no N-acetylcysteine solution was added and instead the amount of buffer added was increased an equivalent amount to compensate (288 μL total buffer). The vial was placed in a heating block at 37° C. and protected from direct light. 25 μL aliquots of the reaction mixture were removed at various time points and analyzed by LC-MS. LC-MS peaks were integrated within the Agilent LC-MS software and the areas of each peak were normalized to 1-napthalene acetic acid at 280 nm. Percent compound remaining is defined as the normalized peak area at a given time point divided by the normalized peak area at 0 hours×100%.

Cathepsin B = Cathepsin B (Homo sapiens, UniProt P07858); assay: Release Kinetics Assay with Cathepsin B; format: biochemical; settings: pH 5.0, 37° C.
Description: Release Kinetics Assay: In a 1.5 mL screw-top conical plastic vial, the desired compound as a solution in DMSO (5 mM, 6 μL, 30 nmol) was mixed with a solution of N-acetylcysteine in DMSO (10 mM, 6 μL, […], 2 equiv) to quench the maleimide. The mixture was diluted with pH 5.0 sodium acetate buffer containing 8 mM N-acetylcysteine (255 μL). 1-napthalene acetic acid in DMSO (5 mM, 6 μL, 30 nmol) was added as an internal standard. A 9.2 U/mL solution of Cathepsin B in pH 5.0 buffer was added. The vial was placed in a heating block at 37° C. and protected from direct light. 25 μL aliquots of the reaction mixture were removed at various time points and analyzed by LC-MS. LC-MS peaks were integrated within the Agilent LC-MS software and the areas of each peak were normalized to 1-napthalene acetic acid at 280 nm. Percent drug-linker remaining is defined as the normalized peak area at a given time point divided by the normalized peak area at 0 hours×100%.

HT-29 (HER2−) = assay: Cell proliferation assay, HT-29; format: cell-based; settings: Homo sapiens
Description: as §1, §2

SK-BR-3 (HER2+) = assay: Cell proliferation assay, SK-BR-3; format: cell-based; settings: Homo sapiens
Description: as §2

NCI-N87 (HER2+) = assay: Cell proliferation assay, NCI-N87; format: cell-based; settings: Homo sapiens

With COc1c2c(c(O)c3c4c(c(C)cc13)C1OC3(C(OC)OC)OC1[C@@](OC)(O4)[C@@]3(O)CBr)C(=O)CCC2 (stereo partly shown) [compound 3] the IC50 (H460 cells; H460 cells) was 2 nM, the “cellular toxicity against H460 cells relative to the parent epoxide” value (H460 cells) was “no loss in cellular toxicity” and the “reversion to the epoxide during DNA incubation” value ([1]; 4 h at 23° C.) was “did not revert to the epoxide”. The DNA alkylation ([1]; incubation with d(AATTACGTAATT) for 4 h at 23° C.) was “did not alkylate DNA”.
With CNCCCC(=O)O[C@]1(CBr)C2(C(OC)OC)OC3c4c(C)cc5c(OC)c6c(c(O)c5c4O[C@]1(OC)C3O2)C(=O)CCC6 (stereo partly shown) [compound 13] the “liberation of the bromohydrin through ester spacer cyclization” value ([2]; pH 7.4 or 5.0, extended incubation at 37° C. or 50° C.) was “failed to liberate the bromohydrin”.
For CNCCNC(=O)O[C@]1(CBr)C2(C(OC)OC)OC3c4c(C)cc5c(OC)c6c(c(O)c5c4O[C@]1(OC)C3O2)C(=O)CCC6 (stereo partly shown) [compound 9], the “liberation of bromohydrin 3 through diamine spacer cyclization” value ([2]; 37° C., pH 7.4 or 5.0 buffer) was “no liberation of bromohydrin was observed”.
For COc1c2c(c(O)c3c4c(c(C)cc13)[C@@H]1O[C@@]3(C(OC)OC)O[C@@H]1[C@@](O[C@H]1C[C@@H](O)[C@@](O)(C(C)=O)[C@H](C)O1)(O4)[C@@]31CO1)C(=O)[C@@H](O)C[C@@H]2O[C@H]1C[C@@](C)(O)[C@H](OC(C)=O)[C@H](C)O1 [Trioxacarcin A], the “IC70 LXFL 529L” value (LXFL 529L) is given as “subnanmolar”, the “IC70 H-460” value (H-460) is given as “subnanmolar” and the “IC70 MCF-7” value (MCF-7) is given as “subnanmolar”. For the same compound, the “IC70 SF-268” value (SF-268) was “subnanmolar”, the “anti-tumor activity in murine models” value (tumor) was “anti-tumor activity” and the gram-positive antibiotic activity (gram-positive) was “gram-positive antibiotic activity”.
For COCCOCCOCCOCCOCCOCCOCCC(=O)NCCCC[C@H](NC(=O)CCOCCOCCOCCOCCN1C(=O)C=CC1=O)C(=O)N[C@H](C(=O)N[C@@H](C)C(=O)Nc1ccc(COC(=O)N(CCS(C)(=O)=O)CO[C@]2(CBr)C3(C(OC)OC)OC4c5c(C)cc6c(OC)c7c(c(O)c6c5O[C@]2(OC)C4O3)C(=O)CCC7)cc1)C(C)C (stereo partly shown) [compound 27], the “stability of drug-linker at pH 5.0 and 7.4” value ([3]; 37° C., pH 5.0 and pH 7.4) was “exceptionally stable”, the free drug released ([3]; after 1 week at pH 7.4, 37° C.) was “no detectable free drug released” and the “payload release upon exposure to Cathepsin B” value (Cathepsin B) was “rapidly releases payload”.
For COc1c2c(c(O)c3c4c(c(C)cc13)C1OC3(C(OC)OC)OC1[C@@](OC)(O4)[C@@]3(O)CCl)C(=O)CCC2 (stereo partly shown) [compound 2], the “potency relative to the bromohydrin” value (H460 cells; H460 cells, relative to bromohydrin 3) was “an order of magnitude less potent” and the IC50 (H460 cells; H460 cells) was 21 nM.
For COc1c2c(c(O)c3c4c(c(C)cc13)C1OC3(C(OC)OC)OC1C(O[C@H]1C[C@@H](O)[C@@](O)(C(C)=O)[C@H](C)O1)(O4)C3(O)CO)C(=O)C(O)CC2O[C@H]1C[C@@](C)(O)[C@H](OC(C)=O)[C@H](C)O1 (stereo partly shown) [Trioxacarcin B], the “anti-tumor activity in murine models” value (tumor) is given as “anti-tumor activity” and the gram-positive antibiotic activity (gram-positive) is given as “gram-positive antibiotic activity”.
In the case of COc1c2c(c(O)c3c4c(c(C)cc13)C1OC3(C(OC)OC)OC1C(OC1CC(O)C(O)(C(C)O)C(C)O1)(O4)C31CO1)C(=O)C(O)CC2OC1COC(C)(OC(C)=O)C(C)(O)C1 (stereo not shown) [Trioxacarcin C], the “anti-tumor activity in murine models” value (tumor) is given as “anti-tumor activity” and the gram-positive antibiotic activity (gram-positive) is given as “gram-positive antibiotic activity”.
In the case of COc1c2c(c(O)c3c4c(c(C)cc13)C1OC3(C(OC)OC)OC1[C@@](OC)(O4)[C@@]3(O)CI)C(=O)CCC2 (stereo partly shown) [compound 4], the IC50 (H460 cells; H460 cells) is reported as 4 nM, the “cellular toxicity against H460 cells relative to the parent epoxide” value (H460 cells) is reported as “no loss in cellular toxicity” and the IC50 (HT-29 (HER2−)) is reported as 7 nM. For the same compound, the IC50 (SK-BR-3 (HER2+)) was 4 nM and the IC50 (NCI-N87 (HER2+)) was 1 nM.
In the case of COc1c2c(c(O)c3c4c(c(C)cc13)C1OC3(C(OC)OC)OC1[C@@](OC)(O4)[C@]3(CBr)OCN(CCS(C)(=O)=O)C(=O)OCc1ccc(NC(=O)[C@H](C)NC(=O)[C@@H](NC(=O)CCCCCN3C(=O)C=CC3=O)C(C)C)cc1)C(=O)CCC2 (stereo partly shown) [compound 19], the “stability of drug-linker quenched with N-acetyl cysteine” value ([3]; 37° C., pH 7.4 buffer) is reported as “stable for days” and the “payload release upon exposure to Cathepsin B” value (Cathepsin B) is reported as “excellent release kinetics; also recorded: rapidly liberated FST-bromohydrin payload 3”.

Reference: patent publication US20240148889A1, “STABILIZED TRIOXACARCIN ANTIBODY DRUG CONJUGATES AND USES THEREOF” (President and Fellows of Harvard College, priority 2020, published 2024)
